Experimental data: the NIST ThermoML archive (doi:10.1021/je700428f)
± gives the expanded uncertainty stated by the source.

Columns and labels:
[1] = xn = mol fraction of the nth substance listed; conditions: 101 kPa, Liquid
[2] = 101 kPa, Liquid; for viscosity: Capillary tube (Ostwald / Ubbelohde) method

SMILES | mass density ([2]; 273.15 K) [kg/m3] | mass density ([2]; 278.15 K) [kg/m3] | mass density ([2]; 283.15 K) [kg/m3] | mass density ([2]; 288.15 K) [kg/m3] | mass density ([2]; 293.15 K) [kg/m3] | mass density ([2]; 298.15 K) [kg/m3] | mass density ([2]; 303.15 K) [kg/m3] | mass density ([2]; 308.15 K) [kg/m3] | mass density ([2]; 313.15 K) [kg/m3] | mass density ([2]; 318.15 K) [kg/m3] | mass density ([2]; 323.15 K) [kg/m3] | mass density ([2]; 328.15 K) [kg/m3] | mass density ([2]; 333.15 K) [kg/m3] | mass density ([2]; 338.15 K) [kg/m3] | mass density ([2]; 343.15 K) [kg/m3] | mass density ([2]; 348.15 K) [kg/m3] | mass density ([2]; 353.15 K) [kg/m3] | mass density ([2]; 358.15 K) [kg/m3] | mass density ([2]; 363.15 K) [kg/m3] | also measured
CCCCCCCCCC [decane] + COC(C)(C)C |  |  |  |  |  |  |  |  |  |  |  |  |  |  |  |  |  |  |  | mass density ([1]; 273.15 K, x2 = 0): 745.374 ± 0.54 kg/m3; mass density ([1]; 278.15 K, x2 = 0): 741.257 ± 0.55 kg/m3; mass density ([1]; 283.15 K, x2 = 0): 737.502 ± 0.55 kg/m3; mass density ([1]; 288.15 K, x2 = 0): 733.733 ± 0.56 kg/m3; mass density ([1]; 293.15 K, x2 = 0): 729.958 ± 0.56 kg/m3; mass density ([1]; 298.15 K, x2 = 0): 726.174 ± 0.57 kg/m3; mass density ([1]; 303.15 K, x2 = 0): 722.377 ± 0.57 kg/m3; mass density ([1]; 308.15 K, x2 = 0): 718.573 ± 0.58 kg/m3; mass density ([1]; 313.15 K, x2 = 0): 714.753 ± 0.59 kg/m3; mass density ([1]; 318.15 K, x2 = 0): 710.92 ± 0.59 kg/m3; mass density ([1]; 323.15 K, x2 = 0): 707.074 ± 0.6 kg/m3; mass density ([1]; 328.15 K, x2 = 0): 703.213 ± 0.6 kg/m3; mass density ([1]; 333.15 K, x2 = 0): 699.334 ± 0.61 kg/m3; mass density ([1]; 338.15 K, x2 = 0): 695.439 ± 0.62 kg/m3; mass density ([1]; 343.15 K, x2 = 0): 691.522 ± 0.62 kg/m3; mass density ([1]; 348.15 K, x2 = 0): 687.587 ± 0.63 kg/m3; mass density ([1]; 353.15 K, x2 = 0): 683.631 ± 0.64 kg/m3; mass density ([1]; 358.15 K, x2 = 0): 679.651 ± 0.64 kg/m3; mass density ([1]; 363.15 K, x2 = 0): 675.648 ± 0.65 kg/m3
COC(C)(C)C [2-methoxy-2-methylpropane] + CCCCCCCCC |  |  |  |  |  |  |  |  |  |  |  |  |  |  |  |  |  |  |  | mass density ([1]; 273.15 K, x1 = 1): 761.34 ± 0.5 kg/m3; mass density ([1]; 278.15 K, x1 = 1): 756.14 ± 0.51 kg/m3; mass density ([1]; 283.15 K, x1 = 1): 751.02 ± 0.51 kg/m3; mass density ([1]; 288.15 K, x1 = 1): 745.85 ± 0.52 kg/m3; mass density ([1]; 293.15 K, x1 = 1): 740.65 ± 0.53 kg/m3; mass density ([1]; 298.15 K, x1 = 1): 735.4 ± 0.54 kg/m3; mass density ([1]; 303.15 K, x1 = 1): 730.1 ± 0.55 kg/m3; mass density ([1]; 308.15 K, x1 = 1): 724.82 ± 0.56 kg/m3; mass density ([1]; 313.15 K, x1 = 1): 719.42 ± 0.56 kg/m3; mass density ([1]; 318.15 K, x1 = 1): 713.96 ± 0.57 kg/m3
CCCCCCCCCC [decane] | 745.374 ± 0.54 | 741.257 ± 0.55 | 737.502 ± 0.55 | 733.733 ± 0.56 | 729.958 ± 0.56 | 726.174 ± 0.57 | 722.377 ± 0.57 | 718.573 ± 0.58 | 714.753 ± 0.59 | 710.92 ± 0.59 | 707.074 ± 0.6 | 703.213 ± 0.6 | 699.334 ± 0.61 | 695.439 ± 0.62 | 691.522 ± 0.62 | 687.587 ± 0.63 | 683.631 ± 0.64 | 679.651 ± 0.64 | 675.648 ± 0.65 | 
CCCCCCCCC [nonane] | 733.184 ± 0.57 | 729.335 ± 0.58 | 725.473 ± 0.59 | 721.603 ± 0.59 | 717.725 ± 0.6 | 713.834 ± 0.6 | 709.929 ± 0.61 | 706.011 ± 0.61 | 702.076 ± 0.62 | 698.124 ± 0.63 | 694.151 ± 0.63 | 690.165 ± 0.64 | 686.154 ± 0.64 | 682.116 ± 0.65 | 678.06 ± 0.66 | 673.979 ± 0.66 | 669.872 ± 0.67 | 665.73 ± 0.68 | 661.557 ± 0.68 | viscosity ([2]; 273.15 K): 0.972 ± 0.01 mPa·s; viscosity ([2]; 278.15 K): 0.896 ± 0.01 mPa·s; viscosity ([2]; 283.15 K): 0.828 ± 0.01 mPa·s; viscosity ([2]; 288.15 K): 0.768 ± 0.009 mPa·s; viscosity ([2]; 293.15 K): 0.716 ± 0.009 mPa·s; viscosity ([2]; 298.15 K): 0.669 ± 0.009 mPa·s; viscosity ([2]; 303.15 K): 0.628 ± 0.009 mPa·s; viscosity ([2]; 308.15 K): 0.59 ± 0.009 mPa·s; viscosity ([2]; 313.15 K): 0.555 ± 0.009 mPa·s; viscosity ([2]; 318.15 K): 0.522 ± 0.009 mPa·s; viscosity ([2]; 323.15 K): 0.493 ± 0.009 mPa·s; viscosity ([2]; 328.15 K): 0.466 ± 0.009 mPa·s; viscosity ([2]; 333.15 K): 0.442 ± 0.009 mPa·s; viscosity ([2]; 338.15 K): 0.42 ± 0.009 mPa·s; viscosity ([2]; 343.15 K): 0.399 ± 0.009 mPa·s; viscosity ([2]; 348.15 K): 0.38 ± 0.008 mPa·s; viscosity ([2]; 353.15 K): 0.362 ± 0.008 mPa·s; viscosity ([2]; 358.15 K): 0.346 ± 0.008 mPa·s
COC(C)(C)C [2-methoxy-2-methylpropane] | 761.34 ± 0.5 | 756.14 ± 0.51 | 751.02 ± 0.51 | 745.85 ± 0.52 | 740.65 ± 0.53 | 735.4 ± 0.54 | 730.1 ± 0.55 | 724.82 ± 0.56 | 719.42 ± 0.56 | 713.96 ± 0.57 |  |  |  |  |  |  |  |  |  | 
